# Experimental data published in patent publication EP0485219B1, “Medicaments for preventing and treating circulatory organ diseases containing spiro-3-heteroazolidine compounds” (SANWA KAGAKU KENKYUSHO CO., LTD., priority 1990, dated 1992).
# How the values were obtained:
# [1] = test system: left atrium; test: Action on extracted guinea pigs' hearts: left atrium sample (systole force); set-up: species or system Hartley guinea pigs; settings: electrically stimulated; for Systole Forces 10^-4(M): suppression at 10^-4 M; for Systole Forces 10^-5(M): suppression at 10^-5 M
# From the text: (§1) Stunned by receiving a blow on the heads, Hartley guinea pigs (weighing 300-400 g) were fixed on the back regions to extract their hearts. Each of the extracted hearts was placed in a beaker containing the same Krebs-Henseleit solution as used in Test Example 4 and supplied with 95% O₂-5% CO₂ gases, thereby stripping it of blood deposits, and was then passed into a sample forming glass vessel. This vessel was previously filled with a Krebs-Henseleit solution and the above gaseous mixture continued to be supplied thereto during preparing the sample.
# (§2) In order to prepare the sample, the right and left atria were cut out of the ventricular muscle along the atriventricular sulcus from the center of both the right and left auricles.
# The extracted left atrium was fixed with a micro wire clamp through both the auricles in a Magnus tube supplied with 95% O₂ - 5% CO₂ gases, containing 30 ml of a Krebs-Henseleit solution and maintained at a solution temperature of 32±1°C, and then suspended therein under a checking tension of ca. 0.25 g. While a platinum bipolar electrode attached to the above-mentioned micro wire clamp was in contact with the atrium, stimuli were given to it by 1-Hz, 2-msec. and 10-V rectangular waves derived through an electrical stimulator and an isolator to record the movement of said atrium with an FD pickup connected with it through silk thread.
# (§3) The actions of the present and control compounds on the right (counting the heart rate) and left (measuring the systole force) atria are reported below.
# [2] = test system: right atrium; test: Action on extracted guinea pigs' hearts: right atrium sample (heart rate); set-up: species or system Hartley guinea pigs; settings: for Heart Rates 10^-4(M): suppression at 10^-4 M; for Heart Rates 10^-5(M): suppression at 10^-5 M
# From the text: as §1, §2
# The thus extracted right atrium was suspended in a Magnus tube with a tension of 0.2 to 0.3 g, said tube supplied with 95% O₂ - 5% CO₂ gases, containing 10 ml of a Krebs-Henseleit solution and maintained at 32±1°C. The contraction of the sample was recorded on a recorder through an FD pickup simultaneously with counting and recording the beat with an instantaneous cardiograph unit.
# as §3
# [3] = test system: platelet aggregation; test: Ex vivo action on inhibiting platelet aggregation after intravenous administration; assay type: in vivo, rat; settings: inhibition of platelet aggregation relative to control; 30.0 mg/kg intravenously, blood gathered five minutes after; inducer collagen
# Procedure: Five minutes after the test compound had been intravenously administered to the tail of a rat, blood was gathered from the descending aorta of the rat which was lightly etherized. Added to this blood was citric acid (3.8% sodium citrate) in a volume ratio of 1/10.
# The thus treated blood was centrifuged at 1500 rpm for 5 minutes to obtain a supernatant fluid in the form of PRP. The residues were then again centrifuged at 4°C and 3000 rpm for 10 minutes to obtain a supernatant fluid in the form of PPP. For the platelet aggregation test, NAB HEMA TRACER 601 (Model PAT-60 made by Niko Bioscience Co., Ltd.) was used. […] of PRP were put in a PRP cuvette having a stirrer bar with the transmittance set at 0%, while 300 µl of PPP were put in a PPP cuvette with the transmittance set at 100%. After 1-minute preincubation, 20 µl of an aggregation inducer (collagen or ADP) were introduced.
# A control group, to which dimethylacetamide and tartaric acid in a ratio of 2/3 were given in a quantity of 1 ml/kg, was treated similarly to the test group. Upon the addition of the aggregation inducer, a maximum transmittance change was read to find a platelet aggregation change in %. […] Table 3 sets out the results, from it is noted that the present compounds have a significant action on inhibiting platelet aggregation.
Structure (SMILES),Systole Forces 10^-4(M) [1],Systole Forces 10^-5(M) [1],Heart Rates 10^-4(M) [2],Heart Rates 10^-5(M) [2],inhibition of collagen-induced platelet aggregation [3]
"CC(C)NCC(O)COc1cccc2ccccc12 (stereo not shown) [A, propranolol]",++ (++ indicates 20% or more suppression),++ (++ indicates 20% or more suppression),++ (++ indicates 20% or more suppression),++ (++ indicates 20% or more suppression),
CC(=O)Oc1ccccc1C(=O)O [Aspirin],,,,,77%
"CC(C(O)c1ccc(O)cc1)N1CCC(Cc2ccccc2)CC1 (stereo not shown) [B, ifenprodil]",+ (+ 10-20% suppression),- (- 0% suppression),++ (++ indicates 20% or more suppression),++ (++ indicates 20% or more suppression),
COc1ccc2c(c1)c(CC(=O)O)c(C)n2C(=O)c1ccc(Cl)cc1 [Indomethacin],,,,,49%
